Measurements reported in US7396534B2, “Cosmetic compositions containing Nigrospora sphaerica extracts” (Unilever Home & Personal Care USA, division of Conopco, Inc., priority 2004, dated 2008).

Legend:
[1] = system: MelanoDerm tissue equivalent model (MEL-300) containing melanocytes obtained from dark skin individuals; assay: MelanoDerm tissue equivalent model, melanin content; format: cell-based, human; conditions: 14 micro-g/ml (100 uM); 14-day period, relative to untreated or vehicle control
Method: MelanoDerm Tissue Model Method
A MelanoDerm tissue equivalent model (MEL-300 from Mat Tek, Ashland, Mass.) containing melanocytes obtained from dark skin individuals was utilized to confirm the results obtained in the pig organ culture. MelanoDerms were cultured as per the supplier instructions.
[…] Positive control was included, i.e., kojic acid, which is a known skin lightening agent. During each medium change, a portion of the waste was analyzed for levels of lactate dehydrogenase as an indicator of cellular toxicity and stress. At no time was the level of lactate dehydrogenase above the vehicle control solvents (water or ethanol).
Determination of melanin content within each MelanoDerm was performed using the assay provided by the manufacturer. Each MelanoDerm was homogenized in 450-microliters of buffer (1% SDS, 0.05-mM EDTA, 10-mM Tris-HCl, pH 6.8) containing 20-microliters of Proteinase K (5 mg/ml) and incubated overnight at 45° C. […] The optical density of the top phase was determined (405-nm) following extraction of the sample with 100-microliters of chloroform:methanol (2:1) and centrifugation (10,000 g) for ten minutes. Optical density readings relative to the untreated or vehicle control (water or ethanol) were then calculated.

[2] = system: skin from 8-month old pigmented pigs; assay: Pig skin organ culture, 14C-thiouracil incorporation (new melanin synthesis); format: cell-based; conditions: 1.4 mg/ml (10 mM), pig skin biopsies, three day incubation
Method: Organ Culture Method Waste skin from 8-month old pigmented pigs was shaved to remove hairs and washed thoroughly to remove debris and reduce microbial content. The cleaned skin was then dermatomed to approximately 1-mm thickness×75-cm^2 and placed in tissue culture flasks containing Dulbecco's Modified Eagle's Medium (DMEM Cat#1188507) containing penicillin (100-units/ml), streptomycin (100-ug/ml), kanamycin (200-ug/ml), […]-mM), and fungizone (0.5-ug/ml). All flasks were incubated overnight at 37° C. in the presence of 5% carbon dioxide. This allowed the skin to equilibrate for 18 hours prior to the addition of melanin inhibitors. Areas of the skin that had scratches, erythema, or uneven pigmentation were discarded. The following morning, the skin was punched into 4-mm diameter biopsies and transferred to a 96-well tissue culture plate. To each well containing a biopsy, 180-microliters of fresh DMEM containing penicillin (100-units/ml), streptomycin (100-ug/ml), […]-mM), hydrocortisone (100-μg/ml) and 0.4-μCi/ml ^14C-thiouracil (Moravek Biochemicals) was added along with 20-microliters of natural extract. […] Samples were mixed several times to ensure even dispersion, sealed, and assessed for radiolabel incorporation using a Packard TopCount scintillation counter. […]

With `O=c1cc(CO)occ1O` [Kojic Acid] the “% Melanin Reduction” value [1] was 9.5% and the “% Radiolabel Reduction” value [2] was 56%.
